Reference: paper PMC5597121, “The human bitter taste receptor T2R38 is broadly tuned for bacterial compounds” (PLoS ONE, 2017)
Changes are numbered by the printed parent chain. Several values for one entry are separate records, joined by “and”; a condition that tells them apart may be missing. Equal entries are not always repeated. Where two headings read alike, the source gives them in different places.

How the values were obtained:
[1] = molecular target: T1, T2R38 (Homo sapiens, UniProt P59533, A49P/I296V); assay: Single cell calcium imaging, Peakrapid cells (Gα16gustducin44) transiently transfected with T2R38; type: cell-based; settings: for response of T2R38 PAV transfected cells (S7_fig raw data): individual values of experiments 1-5; for Emax: read-out: Emax (% of positive control)
T1 construct: leader: first 45 amino acids of rat somatostatin receptor subtype 3 (SSTR3) (N); expressed in transfected cells; host or cells: Peakrapid cells (HEK293 derivative, ATCC CRL-2828) stably expressing Galpha16gustducin44, co-transfected with human RTP4
T1 sequence (P59533 1-333 A49P/I296V): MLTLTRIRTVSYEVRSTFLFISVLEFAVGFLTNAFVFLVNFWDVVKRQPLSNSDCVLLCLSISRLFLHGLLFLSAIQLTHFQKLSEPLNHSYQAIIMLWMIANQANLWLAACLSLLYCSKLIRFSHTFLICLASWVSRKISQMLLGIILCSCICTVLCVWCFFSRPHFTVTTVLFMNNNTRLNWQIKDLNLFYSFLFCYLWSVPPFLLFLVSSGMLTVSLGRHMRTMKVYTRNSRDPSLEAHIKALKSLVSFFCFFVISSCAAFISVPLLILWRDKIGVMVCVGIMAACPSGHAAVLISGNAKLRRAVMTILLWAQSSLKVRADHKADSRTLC
Source text: (§1) The coding sequences of either the functional (PAV, GenBank accession number AY258597.1) and non-functional (AVI, GenBank accession number AF494231.1) were amplified from human genomic DNA by polymerase chain reaction.
These coding sequences were cloned in a pEFIB backbone vector in translational fusion with the coding sequence of a leader sequence corresponding to the 45 first amino acids of the rat somatostatin receptor subtype 3 [20]. The constructs were verified by sequencing. The coding sequence of RTP4 (Genbank accession number AY562238.1) was amplified from human spleen cDNA and cloned a pCI backbone vector.
The Gα16gustducin44 sequence was generated by swapping the last 132 nucleotides of the G α16 with the corresponding terminal sequence of the Gα-gustducin [21] and was cloned in a pIRES-Puro plasmid. This vector was transfected in the Peakrapid cell line (ATCC reference: CRL-2828™; purchased from LGC Standards SARL, Molsheim, FRANCE), HEK293 cell line derivative, cultured in EMEM culture medium (reference BE12-136F; Lonza, Vervier, BELGIUM) supplemented with 10% of foetal bovine serum (Sigma-Aldrich, Bornem, Belgium) and 1 μg/ml of Puromycin to allow the selection of recombinant cell populations. Cell clones expressing the Gα16gustducin44 were selected and the clone presenting the best functional response of T2R38 to phenylthicarbamide was used for the study (see below).
(§2) The Peakrapid cell line expressing stably a chimeric Gα16gustducin44 G protein [21] was used. 40 000 cells were seeded in each well of a black/clear poly-D-lysine cellware pre-coated 96-well plate (Biocoat®, Becton-Dickinson, Erembodegem, Belgium) and transiently transfected with 50 ng of plasmid DNA containing the receptor sequence or not (empty vector) and with 50 ng of chaperone protein RTP4 per well. Forty hours after transfection, cells were incubated with the calcium-sensitive dye Fluo4 (Life Technologies, Oregon, USA) solubilized at 10 μg/ml in a buffer containing EMEM (150 mM NaCl, 5 mM KCl, 2 mM CaCl2, 1.2 mM MgCl2, 10 mM glucose), 10 mM HEPES, 0.01% (v/v) Pluronic F127, 0.1% (w/v) bovine serum albumin. After 1 h incubation at 37°C, cells were rinsed twice with the same buffer without Fluo4 and left in 50 μl buffer (prior ligand injection). Measurement were performed on a platform based on a motorized Axiobserver Z1 fluorescence microscope piloted by a Axiovision software (Zeiss, Jena, Germany) as described previously. For each selected well, images were taken 1 per second, during 30 seconds. 50 μl of the buffer containing the ligand twice concentrated was injected on the 2nd second of the time lapse record.
After time lapse record, the number of responding cells in each injected well was determined using ImageJ 1.34 (Rasband, W.S., ImageJ, National Institutes of Health, Bethesda, Maryland, USA, http://rsb.info.nih.gov/ij/1997-2004), and expressed as the percentage of the surface of a microscope field covered by activated cells with respect to the total surface of the field covered by confluent cells. Automated determination of the surface occupied by responding cells is easier to perform than a cell counting. The resulting percentage of positive surface provided a convenient estimation of the percentage of responding cells, as observed by comparing the percentage of positive surface and percentage of responsive cells determined by direct counting, in the same experiment. In agreement with the literature, the percentage of responding cells was proportional to the agonist concentration. During experiment in each plate, at least 2 wells were tested with phenylthiocarbamide (PTC) at 0.1 mM, which is one of the best characterized agonist of T2R38 in the literature. The activation of T2R38 by PTC allows normalization of the result of other tested molecules. The results were thus expressed as the percentage of PTC activation. […]

[2] = molecular target: T2, T2R38 AVI (Homo sapiens, UniProt P59533, A262V); assay: Single cell calcium imaging, control: cells transfected with nonfunctional allele (AVI) of T2R38; type: cell-based; settings: T2R38 AVI, individual values of experiments 1-5
T2 construct: leader: first 45 amino acids of rat somatostatin receptor subtype 3 (SSTR3) (N); expressed in transfected cells; host or cells: Peakrapid cells (HEK293 derivative, ATCC CRL-2828) stably expressing Galpha16gustducin44, co-transfected with human RTP4
T2 sequence (P59533 1-333 A262V): T1 sequence (P59533 1-333 A49P/I296V) with P49A, A262V, V296I
Description: as §1, §2
(§3) After time lapse record, the number of responding cells in each injected well was determined using ImageJ 1.34 (Rasband, W.S., ImageJ, National Institutes of Health, Bethesda, Maryland, USA, http://rsb.info.nih.gov/ij/1997-2004), and expressed as the percentage of the surface of a microscope field covered by activated cells with respect to the total surface of the field covered by confluent cells. Automated determination of the surface occupied by responding cells is easier to perform than a cell counting. The resulting percentage of positive surface provided a convenient estimation of the percentage of responding cells, as observed by comparing the percentage of positive surface and percentage of responsive cells determined by direct counting, in the same experiment. In agreement with the literature, the percentage of responding cells was proportional to the agonist concentration. During experiment in each plate, at least 2 wells were tested with phenylthiocarbamide (PTC) at 0.1 mM, which is one of the best characterized agonist of T2R38 in the literature. The activation of T2R38 by PTC allows normalization of the result of other tested molecules. The results were thus expressed as the percentage of PTC activation. In scaling calcium imaging assays using this latter receptor, concentration-responses curves were performed and data were fitted to a four parameter logistic equation: y=min+ (max− min)/1+10 ^(logEC50−x)nH . Min and max are the minimum and the maximum values of the percentage of cell-activated surface respectively, y is the percentage of cell-activated surface at the x concentration and nH is the Hill coefficient.

[3] = system: mock transfected cells (empty vector); assay: Single cell calcium imaging, control: mock transfected (empty vector) Peakrapid cells; type: cell-based, human
Description: as §2, §3

SMILES	agonist activity on T2R38 (in words) [1]	response of T2R38 PAV transfected cells (S7_fig raw data) [1]	EC50 ([1]; concentration-response curve, read-out: EC50) [mM]	EC50 ([1]; given in the concentration-response curve, read-out: logEC50 (converted)) [mM]	Emax ([1]; percentage of the response elicited by 0.1 mM PTC) [%]	response of T2R38 AVI transfected cells (S7_fig raw data) [2]	percentage of surface covered by activated cells ([3]; 2 pentanone 0.0001, log10[ ] -4)	percentage of surface covered by activated cells ([3]; 2 pentanone 0.001, log10[ ] -3)	percentage of surface covered by activated cells ([3]; 2 pentanone 0.003, log10[ ] -2.52288)	percentage of surface covered by activated cells ([3]; 2 pentanone 0.006, log10[ ] -2.22185)	percentage of surface covered by activated cells ([3]; 2 pentanone 0.02, log10[ ] -1.69897)	EC50 ([1]; EC50, concentration-response curve) [mM]	response of T2R38 PAV transfected cells (S7_fig raw data) ([1]; listed as g-butyrolactone)	EC50 ([1]; logEC50, printed in the picture of the concentration-response curve) [mM]	Emax [1] [%]	response of T2R38 AVI transfected cells (S7_fig raw data) ([2]; listed as g-butyrolactone)
CCCC(C)=O [2-pentanone]	able to specifically trigger this receptor	9% and 12% and 15% and 13% (2×) and 7.41% and 5.71% and 14%	4	4.17	45	0.427% and 0.477% and 0.476% and 0.193% and 0.0823% and 0.141% and 0.285% and 0.393%	0.19% and 0.34% and 0.32% and 0.16% and 0.35% and 0.41%	0.04% and 1.06% and 0.17% and 0.14% and 0.64% and 0.06%	0.03% and 0.41% and 0.31% and 0.06% and 0.22% and 0.074%	0.27% and 1.25% and 0.19% and 0.29% and 0.62% and 0.33%	0.18% and 0.24% and 0.54% and 1.13% and 0.15% and 0.52%	–	–	–	–	–
CSSC [diméthyldisulfide]	–	18% and 12% (2×) and 2.83% and 2.52% and 3.72% and 7.4% and 9% and 2% and 0.585%	–	–	–	0.145% and 0.026% and 1.18% and 0.463% and 1.36% and 1.27% and 1.33% and 1.1% and 0.0987% and 0.185%	–	–	–	–	–	–	–	–	–	–
O=C1CCCO1 [γ-butyrolactone]	able to specifically trigger this receptor	–	–	–	–	–	–	–	–	–	–	12	18% and 20% and 13% and 12% (2×) and 14% and 11% (2×) and 9.52% and 15%	12	33	0.0283% and 0.0479% and 0.129% and 0.148% and 0.16% and 0.208% and 0.188% and 0.394% and 0.0477% and 0.222%
